Assay results: PMC11220827 (Frontiers in Pharmacology, 2024)
Read-outs that look alike come from different tables or passages of the source.

Legend:
[1] = target: Adenosine A2A (h) (Homo sapiens, UniProt P29274); assay: Pharmacology profiling: Adenosine A2A (h) (agonist RL); assay type: binding; settings: read-out: Adenosine A2A (h) (agonist RL): % inhibition @10 µM
Description: (§1) Cosmetics Europe’s Systemic Toxicity Taskforce (SysTox-TF) has extended the list of targets in an in vitro screen originally described by [Bowes et al. (2012)] to assess the effects of cosmetic chemicals on target molecules. The approach was based on the knowledge that various targets of pharmacological interest have been linked to human adverse drug reactions, and that screening of these has helped the pharma industry in identifying drug candidates with acceptable human safety profiles ([Bowes et al., 2012]; [Scott et al., 2022]). The methods used by the pharma industry were adapted for use in cosmetic chemical NGRA. A final list of 83 target assays were considered suitable for cosmetic chemical safety testing (see Supplementary Materials S1.7). The targets were receptors, ion channels, transporters and enzymes identified by the pharma industry as linked to human adverse drug reactions, supplemented by additional targets that have been reasoned to be linked to systemic toxicities of chemicals in animals. Chemicals that are flagged for a target are tested in follow-up dose-response assays to establish potency of the interaction. […]. [Valentin et al., 2018]; [Dodson et al., 2021]). […].
(§2) assay’s reference compound was set to 100%. For antagonist assays, the basal signal (exposure to fixed concentration of agonist only) was set to 100%. Activity of the samples was scaled accordingly, […]
(§3) Using these graphs, lowest […]
(§4) compound activity for antagonist assays.
(§5) S1.7. Pharmacology profiling assays […]
(§6) reasoned to link to pathological effects. […]
(§7) around the control level. […]
(§8) determine the potency (IC50).
(§9) Supplementary Table S4 Pharmacology profiling assay panel. […]

[2] = system: Deiodinase; parameters: method as in ToxCast; settings: ref ToxCast, cited from earlier work; for Thyroid pathway: Deiodinase (Not AOP), Call: key: Pos = positive result; Neg = negative result; Inc = uncertain/inconclusive result
[3] = target: PDE4D2 (h) (Homo sapiens, UniProt Q08499); assay: Pharmacology profiling: PDE4D2 (h) (phosphodiesterase 4D); assay type: biochemical; settings: read-out: PDE4D2 (h) (phosphodiesterase 4D): % inhibition @10 µM
PDE4D2 (h), sequence (Q08499 303-809): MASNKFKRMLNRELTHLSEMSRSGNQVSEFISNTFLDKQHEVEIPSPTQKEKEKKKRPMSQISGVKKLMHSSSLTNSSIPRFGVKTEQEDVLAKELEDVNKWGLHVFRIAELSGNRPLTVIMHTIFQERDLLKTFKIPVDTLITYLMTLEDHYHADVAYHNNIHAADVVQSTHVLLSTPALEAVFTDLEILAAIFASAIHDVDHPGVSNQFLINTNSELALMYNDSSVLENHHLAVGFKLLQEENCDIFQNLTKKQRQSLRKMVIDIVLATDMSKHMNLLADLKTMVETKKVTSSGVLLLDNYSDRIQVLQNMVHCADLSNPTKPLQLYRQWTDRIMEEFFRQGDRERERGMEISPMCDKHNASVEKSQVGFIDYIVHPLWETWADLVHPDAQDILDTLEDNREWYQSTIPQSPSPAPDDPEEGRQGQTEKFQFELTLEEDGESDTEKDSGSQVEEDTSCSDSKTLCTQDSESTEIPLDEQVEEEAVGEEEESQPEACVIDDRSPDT
Description: as §1, §2, §3, §4, §5, §6, §7, §8, §9

[4] = system: TSHR; parameters: method as in ToxCast; settings: ref ToxCast; cited from earlier work; note: key: Pos = positive result; Neg = negative result; Inc = uncertain/inconclusive result
[5] = system: HepaRG cells; assay: Transcriptomics (TempO-Seq, BMD analysis) in HepaRG cells; assay type: cell-based
Description: These differed with respect to the number of genes passing all filters in each pathway (3 versus 5 genes). […] Therefore, we captured pathways which fulfilled both criteria.
HepG2 (human hepatoblastoma) , MCF-7 (human breast adenocarcinoma) cells supplied by
Public Health England European Collection of Cell Cultures (ECACC, Salisbury, UK). Differentiated
HepaRG cells (HPR116, Lot HPR116239 -TA08) were from Biopredic International (Rennes, France).
Test chemicals were prepared in DMSO as serial dilutions, resulting in concentrations in media of
biological replicates were treated with the appropriate dose of co mpound for 24 h prior to cell lysis.
Biospyder human whole genome panel version 1 (https://biospyder.com).
Gene normalization and analysis
expression values for each probe were normalized by applying DESEQ2 normalization. A pseudo-
read-count of 1.0 was added to each normalized expression value, and then the values were log2
transformed . Analyses performed included Gene and Pathway, Dose Response and Network
monotonic increasing/decreasing trend were those which confirmed to the criteria : William’s trend
Those genes were then used in categorical (pathway) analysis for the Gene Ontology (GO) terms and
REACTOME pathways. Significant dose responsive pathways were determined according to : Fisher’s

[6] = system: Aromatase; parameters: method as in ToxCast; settings: ref ToxCast; cited from earlier work; note: key: Pos = positive result; Neg = negative result; Inc = uncertain/inconclusive result
[7] = target: T1, Adenosine A1 (h) (Homo sapiens, UniProt P30542); assay: Pharmacology profiling: Adenosine A1 (h) (antagonist RL); assay type: binding; settings: read-out: Adenosine A1 (h) (antagonist RL): % inhibition @10 µM
T1 sequence (P30542 1-326): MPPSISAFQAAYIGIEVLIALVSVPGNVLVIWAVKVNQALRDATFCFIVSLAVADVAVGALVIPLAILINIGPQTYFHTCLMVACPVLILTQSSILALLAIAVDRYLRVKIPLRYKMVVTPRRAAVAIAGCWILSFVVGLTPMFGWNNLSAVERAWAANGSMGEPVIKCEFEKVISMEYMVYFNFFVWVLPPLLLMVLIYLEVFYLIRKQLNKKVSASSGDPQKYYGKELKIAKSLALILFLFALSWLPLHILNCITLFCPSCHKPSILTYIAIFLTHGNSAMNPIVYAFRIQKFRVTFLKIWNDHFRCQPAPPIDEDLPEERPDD
Description: targets. The list of targets included the original panel of 44 targets (including receptors, ion channels,
transporters and enzymes) recommended by 4 major pharmaceutical companies as significant
reasoned to link to pathological effects. Results showing an inhibition or stimulation higher than 50%
are considered to represent significant effects (i.e. a “hit”).
and 50% are indicative of weak to moderate effects and results showing an inhibition (or stimulation)
around the control level. For several targets, additional concentration effect assays were conducted to
determine the potency (IC50). The concentrations tested (in duplicate) ranged between 30 nM and 100

[8] = assay type: in vitro ADME; settings: human, 24 h
Description: Additional information was required to determine whether an adjustment factor was needed to account for a difference in the absorption of daidzein after topical application and whether the absorption was impacted by the use of the intended (body lotion base) formulation. […]. […] […]. The results of this study are described in detail by [Géniès et al. (2024)] and are summarized here.

[9] = system: Androgen pathway; parameters: method as in ToxCast; settings: ref ToxCast, cited from earlier work; for Androgen pathway: Cell Proliferation, Call: key: Pos = positive result; Neg = negative result; Inc = uncertain/inconclusive result
[10] = system: HepG2 cells; assay: cells; assay type: cell-based; settings: for AC50: Homo sapiens, HepG2, 24 h
[11] = system: U2-OS cells; settings: human, 24 h
Description: using the U2-OS based CALUX cytotox bioassay. The cytotoxicity of each test chemical was assessed using the U2-OS based cytotoxicity CALUX bioassay. Concentrations causing >20% reduction of luminescence were considered cytotoxic.
cytotoxicity (relative induction in the cytotoxicity CALUX bioassay > 80%) were used for final
evaluation of analysis results.
induction in the cytotox CALUX bioassay > 80%) were used for final evaluation of analysis results.
All analysis results were expressed in molar (M) final in well.
For the analyses in the presence of rat liver S9, 0.03% (v/v) of PB/BNF induced rat liver
S9 mix (including NADPH and an NADPH-regenerating system) was added to the cells directly after
addition of the compounds, which remained there for the duration of the exposure period (24 h) (van

[12] = system: Monooxygenase; parameters: method as in ToxCast; settings: ref ToxCast, cited from earlier work
[13] = HepaRG, 24 h, pathway differs per chemical

Adenosine A2A (h), sequence (P29274 whole entry): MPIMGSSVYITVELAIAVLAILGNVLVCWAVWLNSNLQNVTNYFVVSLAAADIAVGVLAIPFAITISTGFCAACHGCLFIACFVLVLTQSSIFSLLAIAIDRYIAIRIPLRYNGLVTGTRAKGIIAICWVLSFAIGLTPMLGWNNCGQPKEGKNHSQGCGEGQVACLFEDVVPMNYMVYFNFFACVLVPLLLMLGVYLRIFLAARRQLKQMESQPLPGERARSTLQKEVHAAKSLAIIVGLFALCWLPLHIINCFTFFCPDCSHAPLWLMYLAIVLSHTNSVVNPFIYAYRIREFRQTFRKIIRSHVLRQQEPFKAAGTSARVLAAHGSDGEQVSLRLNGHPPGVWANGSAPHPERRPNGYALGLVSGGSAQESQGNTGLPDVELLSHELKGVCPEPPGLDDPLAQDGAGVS

Which results are given for `O=c1c(-c2ccc(O)cc2)coc2cc(O)ccc12` [Daidzein, DAIDZEIN]?
inhibition at 10 µM [1]: 20.5%; Thyroid pathway: Deiodinase (Not AOP), Call [2]: Pos; AC50 ([2]; read-out: Thyroid pathway: Deiodinase (Not AOP), AC50): 17.2 µM; inhibition at 10 µM [3]: 0.04%; Thyroid pathway: Regulation of transcription factor activity (TSHR), Call [4]: Neg; BMD/NOEC, gene pathway deregulation ([5]; HepaRG cells): 33.1 µM; Lowest median BMD, 3 genes passing all filters [5, 13]: 33.1 µM; Lowest median BMD, >5 genes passing all filters [5, 13]: 39.3 µM; BMD relating to estrogen effects ([5]; HepaRG, 24 h, pathway named in the cell): None; Steroidogenesis: Aromatase, Call [6]: Neg; inhibition at 10 µM [7]: 19.9%; Metabolized in the skin after 24 h [8]: 55%; Androgen pathway: Cell Proliferation, Call [9]: Neg; Androgen pathway: Dimerization, Call [9]: Neg; Androgen pathway: Receptor binding, Call [9]: Neg; Androgen pathway: Reporter protein Agonist, Call [9]: Neg; Androgen pathway: Reporter protein Antagonist, Call [9]: Inc; Androgen pathway: mRNA induction, Call [9]: Neg; AC50 ([9]; read-out: Androgen pathway: Reporter protein Antagonist, AC50): 36.1 µM; Apoptosis & necrosis: cell membrane permeability: Effect [10]: decrease; AC50 ([10]; read-out: Apoptosis & necrosis: caspase 3/7: AC50): > 100 µM; AC50 ([10]; read-out: Apoptosis & necrosis: cell membrane permeability: AC50): > 100 µM; AC50 ([10]; read-out: Cellular ATP: AC50): > 100 µM; AC50 ([10]; read-out: ER stress panel 1: ER integrity: AC50): > 100 µM; AC50 ([10]; read-out: Inflammation & pH: HIF1α: AC50): > 100 µM; AC50 ([10]; read-out: Inflammation & pH: intracellular pH: AC50): > 100 µM; AC50 ([10]; read-out: Mitochondrial mass: AC50): > 100 µM; AC50 ([10]; read-out: Mitochondrial membrane potential: AC50): 55.3 µM; AC50 ([10]; read-out: Nuclear size: AC50): > 100 µM; AC50 ([10]; read-out: Osmotic & heat shock: NFAT: AC50): > 100 µM; AC50 ([10]; read-out: Osmotic & heat shock: hsp70: AC50): > 25 µM; AC50 ([10]; read-out: Oxidative stress: HMOX1: AC50): 77.6 µM; AC50 ([10]; read-out: Oxidative stress: NRF2: AC50): > 100 µM; Apoptosis & necrosis: caspase 3/7: MEC ([10]; human, 24 h): 36.9 µM; Apoptosis & necrosis: cell membrane permeability: MEC ([10]; human, 24 h): 51.5 µM; Cell stress LOEC, ↓ in mitochondrial membrane potential ([10]; human, 24 h): 10.8 µM; Cellular ATP: MEC ([10]; human, 24 h): 89.4 µM; ER stress panel 1: ER integrity: MEC ([10]; human, 24 h): 82.6 µM; Inflammation & pH: HIF1α: MEC ([10]; human, 24 h): 32.3 µM; Inflammation & pH: intracellular pH: MEC ([10]; human, 24 h): 26.3 µM; Mitochondrial mass: MEC ([10]; human, 24 h): 25.9 µM; Mitochondrial membrane potential: MEC ([10]; human, 24 h): 10.8 µM; Nuclear size: MEC ([10]; human, 24 h): 69.2 µM; Osmotic & heat shock: NFAT: MEC ([10]; human, 24 h): 25.0 µM; Osmotic & heat shock: hsp70: MEC ([10]; human, 24 h): 3.3 µM; Oxidative stress: HMOX1: MEC ([10]; human, 24 h): 44 µM; Oxidative stress: NRF2: MEC ([10]; human, 24 h): 30.4 µM; Phospholipidosis: MEC ([10]; human, 24 h): 14.2 µM; Steatosis: MEC ([10]; human, 24 h): 77.4 µM; Cytotoxicity LOEC, +S9 [11]: >−5 Log M; Cytotoxicity LOEC, −S9 [11]: >−5 Log M; Thyroid pathway: Monooxygenase (Not AOP), Call [12]: Pos; AC50 ([12]; read-out: Thyroid pathway: Monooxygenase (Not AOP), AC50): 9.1 µM
